A short description of experiment [1]: Modulation of GP6 in human platelets assessed as reduction in convulxin-induced platelet aggregation.
The nature of experiment [2]: Modulation of GP6 in human platelets reduction in collagen-induced platelet aggregation preincubated for 20 mins followed by collagen stimulation.
Experiment [3] in a line: Inhibition of GP6 in human whole blood assessed as protein-mediated platelet aggregation preincubated for 15 mins followed by collagen stimulation and measured for 10 mins by multiple electrode aggregometry.
In the next experiment the target is T1, Platelet glycoprotein VI (Homo sapiens, UniProt Q9HCN6).
T1 sequence (Q9HCN6 whole entry): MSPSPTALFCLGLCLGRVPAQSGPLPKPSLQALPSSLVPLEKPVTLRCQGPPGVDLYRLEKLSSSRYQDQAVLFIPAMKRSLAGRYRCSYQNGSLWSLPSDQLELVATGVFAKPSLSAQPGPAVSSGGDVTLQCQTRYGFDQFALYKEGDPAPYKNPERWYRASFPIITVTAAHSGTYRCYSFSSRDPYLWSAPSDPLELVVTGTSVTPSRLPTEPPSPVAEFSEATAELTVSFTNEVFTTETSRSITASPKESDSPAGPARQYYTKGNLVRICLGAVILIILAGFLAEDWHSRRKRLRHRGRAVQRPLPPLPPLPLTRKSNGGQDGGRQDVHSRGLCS
Briefly: Inhibition of GP6 in human whole blood assessed as protein-mediated platelet aggregation preincubated for 15 mins followed by collagen stimulation and measured for 10 mins by multiple electrode aggregometry.

A short description of experiment [4]: Antagonist activity at GP6 in human platelet assessed as reduction in collagen-induced platelet-aggregation preincubated for 10 mins followed by collagen stimulation by aggregometry.
A short description of experiment [5]: Antagonist activity at GP6 in human platelet assessed as reduction in CRP-induced platelet-aggregation preincubated for 10 mins followed by collagen stimulation by aggregometry.

The record followed here is BindingDB's records for doi:10.1021/acs.jmedchem.0c00262 (University of Leeds, 2020).

Broadly, the IC50 is the point on the concentration scale where inhibition reaches its midpoint.

Consider `Cc1cccc(Nc2nc(N[C@@H]3CCCC[C@@H]3N)ncc2C(N)=O)c1`, for which the IC50 in experiment [1] stood at 31 nM; in experiment [2], 570 nM.
In the case of `C=CC(=O)N1CCC([C@@H]2CCNc3c(C(N)=O)c(-c4ccc(Oc5ccccc5)cc4)nn32)CC1` (single isomer, unassigned) [US9447106, 27b (peak 2)], the IC50 in experiment [3] worked out at 510 nM.
As for `C/C=C/C(=O)N1CCC[C@H]1c1nc(-c2ccc(C(=O)Nc3ccccn3)cc2)c2c(N)nccn12` [ACP-196], the IC50 at Platelet glycoprotein VI was 1210 nM.
`C=C1C(=O)[C@@]23[C@H](O)C[C@@H]4C(C)(C)C(=O)CC[C@@]4(C)[C@@H]2CC[C@@H]1[C@H]3O` [Glaucocalyxin A]: the half-inhibitory concentration (IC50) was 21 nM in experiment [4] and 2 nM in experiment [5].
As to `C=CC(=O)N1CCC[C@@H](n2nc(-c3ccc(Oc4ccccc4)cc3)c3c(N)ncnc32)C1` [IBRUTINIB], the IC50 in experiment [3] was 120 nM.
In the case of `CC#CC(=O)N1CC[C@@H](n2c(=O)n(-c3ccc(Oc4ccccc4)cc3)c3c(N)ncnc32)C1` [US9199997, 9], in experiment [3], the half-inhibitory concentration (IC50) was found to be 1200 nM.
On the same count and under the same terms, next, `C=CC(=O)N1CCC(CNc2ncnc(N)c2-c2ccc(Oc3ccccc3)cc2)CC1` [US9580449, Example A39]: 5840 nM.
